Laboratory results as given in patent US20250326795A1, “USE OF D-ENANTIOMERIC PEPTIDE LIGANDS OF MONOMERIC TAU FOR THE THERAPY OF VARIOUS TAUOPATHIES” (PRIAVOID GMBH, priority 2021, published 2025).
Like-named read-outs stand apart in the source and are kept apart here. Where a SMILES comes first, the peptide text is derived from it. [ ]: non-standard residue; d: D form.

Assays:
tau = tau (Homo sapiens, UniProt P10636); assay: ThT assay of heparin-induced tau aggregation (with AFM analysis); format: biochemical; conditions: 15 μM tau, 8 μM heparin, 20 μM ThT; for effect on tau aggregation (ThT analysis): 15 μM peptide, 37° C., PBS pH 7.4 (FIG. 1)
Experimental: The effects of TF2D-1 and TF2D-5 on tau aggregation are shown. The ThT assay was performed by incubation of 15 μM tau with 8 μM heparin, 20 μM THT and 15 μM of either of the two peptides TF2D-1 or TF2D-5 at 37° C. in PBS pH 7.4. The sample without addition of the peptide is shown in red. The samples in which TF2D-1 or TF2D-5 was present are shown in green (TF2D-1) and blue (TF2D-5).
Shown are the effects of TF2D-5 on tau aggregation. The ThT assay was performed by incubation of 15 μM tau with 8 μM heparin, 20 μM ThT, 10% DMSO and different concentrations of TF2D-5 at 37° C. pH 7.0. The images next to the graph show the respective AFM measurements of each sample taken after 5 days. […] The image marked with C corresponds to the blue ThT curve without dilution, where TF2D-5 was added after 24 hours. All AFM measurements were performed by drying 1 μl on a mica, followed by two wash steps with 100 μl water and measurement on JPK Nanowizard3 with intermittent contact air and an OMCL AC160TS as cantilever.

[1] = target: T1, monomeric full-length tau 441 (Homo sapiens, UniProt P10636); assay: SPR measurement of peptide binding to tau; conditions: for Kd: SPR T200 Biacore, peptide immobilised on CM5 chip, monomeric tau as analyte, TBS pH 7.4, 0.05% Tween 20, DTT, 1:1 model (FIG. 2b)
T1 construct: SPR measurement of TF2D-5 and TF2D-5a with full-length tau 441
Experimental: SPR measurements of TF2D-5 with the analyte tau. Seven concentrations of tau were prepared for the measurement, with the highest concentration at 100 nM and the lowest concentration at 1.56 nM. The running buffer contained TBS with 0.1% Tween. The Koff was determined to be approximately 6×10-5 s-1.
The tau concentration during the measurement varied from 3.125 nM to 25 nM. […] Tau was used at concentrations from 31.25 nM to 500 nM. SPR measurements of A and B were recorded on a T200 Biacore instrument, the respective peptide was immobilised on a CM5 chip from Cytiva, while monomeric tau served as the analyte. The tests were performed using TBS pH 7.4, 0.05% Tween […] DTT as running buffer. The fit calculation was performed using the internal evaluation software of the T200 Biacore. A 1:1 model was used for both fits.

tau in full-length = target: T2, tau in full-length (Homo sapiens, UniProt P10636); assay: MST measurement of CF633-labelled peptides with tau in full-length; format: binding; conditions: read-out: KD (MST, Boltzmann fit)
T2 construct: MST measurement of TF2D-5, TF2D-5a and CP1 with tau in full-length
Experimental: MST measurement of TF2D-5, TF2D-5a and CP1 with tau in full-length. A) Boltzmann fit of TF2D-5 MST measurements with tau in full-length. TF2D-5 was labelled with CF633. The concentration of TF2D-5 was 500 nM, while the concentration of tau in full-length was between 2.5 μM and 0.2 pM. The measurement was performed in 1×PBS pH 7.4 with 150 mM NaCl. […] B) Boltzmann fit of TF2D-5a MST measurements with tau in full length. TF2D-5a was labelled with CF633. The concentration of TF2D-5a was 62.5 nM, while the concentration of tau in full-length varied between 300 nM and 0.5 nM. The measurement was performed in 0.1 M sodium phosphate buffer pH 7.4 with 75 mM sodium sulphate and 0.05% Tween 20. […] C) Average of the CP1-MST measurements with tau in full length. CP1 consists of the same amino acids as TF2D-5, but with a different distribution of the amino acids. CP1 was labelled with CF633. The concentration of CP1 was 62.5 nM, while the concentration of tau in full-length varied between […] and 0.2 pM. The measurement was performed in 0.1 M sodium phosphate buffer pH 7.4 with 75 mM sodium sulphate and 0.05% Tween 20. […] D) Calculated KDs of the individual peptides to tau in full-length at a glance. All experiments were repeated four times and the average of all measurements was calculated, which in turn was used to calculate the fits (Boltzmann).

[2] = Stability study in different simulated human body fluids; format: in vitro ADME; conditions: simulated gastric fluid pH 1, simulated intestinal fluid pH 6.8, human blood plasma, human liver microsomes (FIG. 6)
Experimental: Stability study of TF2D-5 and TF2D-5a in different simulated human body fluids. A) Stability of the peptides in simulated gastric fluid (SGF). The simulated gastric fluid consisted of 2 mg/ml sodium chloride, 3.2 mg/ml pepsin and 80 mM HCl; pH 1. B) Stability of TF2D-5 and TF2D-5a in simulated intestinal fluid (SIF). Simulated intestinal fluid consisted of 6.8 mg/ml potassium dihydrogen phosphate, 10 mg/ml pancreatic powder and 15.4 mM NaOH; pH 6.8. C) Stability of TF2D 5 and TF2D-5a in human blood plasma. Human K3EDTA blood plasma was obtained from BioTrend. D) Stability of TF2D-5 and TF2D-5a in human liver microsomes. Human liver microsomes consisted of 6 mg/ml protein (containing cytochrome P450 (CYP) enzymes), 75 mM sucrose, 1.3 mM NADPH, 3.3 mM D-glucose-6-phosphate, 0.2 u/ml D-glucose-6-phosphate dehydrogenase, 3.3 mM magnesium chloride and 100 mM potassium phosphate pH 7.4.

tauk18 (LM)-YFP cells = assay: Inhibition of tau aggregation in cells seeded with sonified tau fibrils; format: cell-based; conditions: three-day treatment
Experimental: A) TF2D-5a and the D-peptide CP-1, as negative control, were tested for their ability to inhibit the tau aggregation in tauk18 (LM)-YFP cells. The scale bar corresponds to 50 μm and applies to b-d. The significance was calculated using a one-way ANOVA followed by Dunnett's test for multiple comparisons. Three asterisks represent a p-value of less than 0.001 and four asterisks a p-value of less than 0.0001.

T1 sequence (P10636 1-441 isoform P10636-8): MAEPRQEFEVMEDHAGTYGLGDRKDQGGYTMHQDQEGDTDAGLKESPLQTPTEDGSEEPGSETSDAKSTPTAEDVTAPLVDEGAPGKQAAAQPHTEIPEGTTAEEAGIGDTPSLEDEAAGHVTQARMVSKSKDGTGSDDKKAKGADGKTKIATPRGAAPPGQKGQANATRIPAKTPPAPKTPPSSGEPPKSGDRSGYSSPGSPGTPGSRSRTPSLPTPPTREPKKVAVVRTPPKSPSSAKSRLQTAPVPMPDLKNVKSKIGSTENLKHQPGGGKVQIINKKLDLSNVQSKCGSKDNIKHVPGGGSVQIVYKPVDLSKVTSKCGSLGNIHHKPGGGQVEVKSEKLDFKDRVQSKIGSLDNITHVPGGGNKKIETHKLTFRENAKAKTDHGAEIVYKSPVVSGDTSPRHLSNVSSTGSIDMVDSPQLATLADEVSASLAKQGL
tau, sequence (P10636 1-441 isoform P10636-8): as above
T2 sequence (P10636 1-441 isoform P10636-8): as above

effect on tau aggregation (ThT and AFM analysis) (tau; 10% DMSO, different concentrations of TF2D-5, 37° C., pH 7.0, AFM after 5 days (FIG. 3))	Kd [1]	koff ([1]; SPR, analyte tau 1.56-100 nM, running buffer TBS with 0.1% Tween (FIG. 2a))	Kd (tau in full-length; 500 nM labelled peptide, tau 2.5 μM to 0.2 pM, 1×PBS pH 7.4 with 150 mM NaCl (FIG. 4A))	stability in different body fluids [2]	Kd (tau in full-length; 62.5 nM labelled peptide, tau 300 nM to 0.5 nM, 0.1 M sodium phosphate buffer pH 7.4, 75 mM sodium sulphate, 0.05% Tween 20 (FIG. 4B))	Compound	effect on tau aggregation (ThT analysis) (tau)	effect on number of cells with tau aggregates (tauk18 (LM)-YFP cells; cells seeded with sonified tau fibrils (FIG. 5))	concentration at which reduction in number of cells with tau aggregates was significant (tauk18 (LM)-YFP cells; further reduced at 25 μM and 50 μM, one-way ANOVA, Dunnett's test)
inhibits tau aggregation	1.3 nM	~6e-05 s⁻¹	0.308 nM	very stable	–	CC[C@@H](C)[C@@H](NC(=O)[C@@H](Cc1c[nH]cn1)NC(=O)CNC(=O)CNC(=O)[C@H]1CCCN1C(=O)[C@H](NC(=O)[C@@H](CCCCN)NC(=O)[C@@H](Cc1ccccc1)NC(=O)[C@@H](CC(C)C)NC(=O)[C@H](NC(=O)[C@@H](CCC(N)=O)NC(=O)[C@@H](Cc1ccc(O)cc1)NC(=O)CNC(=O)CNC(=O)[C@H](N)CC(=O)O)[C@H](C)CC)[C@H](C)CC)C(=O)N[C@H](Cc1c[nH]cn1)C(N)=O [TF2D-5, dggyqilfkipgghih] (H-[dD]GG[dY][dQ][dI][dL][dF][dK][dI][dP]GG[dH][dI][dH]-NH2)	inhibit tau aggregation	–	–
–	6.1 nM	–	–	very stable	11.7 nM	CC[C@@H](C)[C@@H](NC(=O)[C@@H](Cc1c[nH]cn1)NC(=O)CNC(=O)CNC(=O)[C@H]1CCCN1C(=O)[C@H](NC(=O)[C@@H](CCCCN)NC(=O)[C@@H](Cc1ccccc1)NC(=O)[C@@H](CC(C)C)NC(=O)[C@H](NC(=O)[C@@H](CCC(N)=O)NC(=O)[C@@H](Cc1ccc(O)cc1)NC(=O)CNC(=O)CNC(=O)[C@H](N)CC(=O)O)[C@H](C)CC)[C@H](C)CC)C(=O)N[C@H](Cc1c[nH]cn1)C(=O)N[C@H](CCCNC(=N)N)C(=O)N[C@H](CCCNC(=N)N)C(=O)N[C@H](CCCNC(=N)N)C(=O)N[C@H](CCCNC(=N)N)C(=O)N[C@H](CCCNC(=N)N)C(N)=O [TF2D-5a, dggyqilfkipgghihrrrrr] (H-[dD]GG[dY][dQ][dI][dL][dF][dK][dI][dP]GG[dH][dI][dH][dR][dR][dR][dR][dR]-NH2)	–	concentration-dependent reduction in the number of cells with tau aggregates	12.5 UM
–	–	–	–	–	–	Nemylwhwqypqhlrvg (H-[dN][dE][dM][dY][dL][dW][dH][dW][dQ][dY][dP][dQ][dH][dL][dR][dV]G-NH2; SMILES CSCC[C@@H](NC(=O)[C@@H](CCC(=O)O)NC(=O)[C@H](N)CC(N)=O)C(=O)N[C@H](Cc1ccc(O)cc1)C(=O)N[C@H](CC(C)C)C(=O)N[C@H](Cc1c[nH]c2ccccc12)C(=O)N[C@H](Cc1c[nH]cn1)C(=O)N[C@H](Cc1c[nH]c2ccccc12)C(=O)N[C@H](CCC(N)=O)C(=O)N[C@H](Cc1ccc(O)cc1)C(=O)N1CCC[C@@H]1C(=O)N[C@H](CCC(N)=O)C(=O)N[C@H](Cc1c[nH]cn1)C(=O)N[C@H](CC(C)C)C(=O)N[C@H](CCCNC(=N)N)C(=O)N[C@@H](C(=O)NCC(N)=O)C(C)C) [TF2D-1]	inhibit tau aggregation	–	–
